# Experimental data: patent US11464749B2, “Bismuth-thiol compositions and methods of use” (Microbion Corporation, priority 2018, dated 2022)
# Where two headings read alike, the source gives them in different places.
# What was measured:
# B. cepacia = experiment: FIC checkerboard assay; assay type: cell-based; settings: during FIC testing; B. cepacia isolate 0546
# B. cenocepacia [1] = experiment: FIC checkerboard assay; assay type: cell-based; settings: during FIC testing; B. cenocepacia isolate 0813 (CIP-I)
# B. cenocepacia [2] = experiment: Broth microdilution MIC (Example 10); settings: initial MIC testing; B. cenocepacia isolate 0548 (CIP-R)
# Haemophilus influenzae = experiment: Broth microdilution MIC against Haemophilus influenzae clinical isolates; settings: for MIC: all evaluated H. influenzae strains, incl. BLNAR, range tested 64-0.06
# Neisseria gonorrhoeae = experiment: Agar dilution MIC (Example 11); assay type: cell-based; settings: read-out: MIC
molecule,measurement,setting,value
C[C@H]1[C@H](NC(=O)/C(=N\OC(C)(C)C(=O)O)c2csc(N)n2)C(=O)N1S(=O)(=O)O [AZT],MIC,B. cepacia,32 µg/mL
same,MIC,B. cenocepacia [1],32 µg/mL
same,MIC,B. cenocepacia [2],64 µg/mL
"bismuth-1,2-ethanedithiol, 2-mercaptopyridine N-oxide [BisEDT/PYR]",MIC,Haemophilus influenzae,< 0.06 µg/mL
"CC[C@H]1OC(=O)[C@H](C)[C@@H](O[C@H]2C[C@@](C)(OC)[C@@H](O)[C@H](C)O2)[C@H](C)[C@@H](O[C@@H]2O[C@H](C)C[C@H](N(C)C)[C@H]2O)[C@](C)(O)C[C@@H](C)CN(C)[C@H](C)[C@@H](O)[C@]1(C)O [azithromycin, Azithromycin]",MIC50,Haemophilus influenzae; Haemophilus influenzae,2 µg/mL
same,MIC90,Haemophilus influenzae; Haemophilus influenzae,2 µg/mL
"bismuth-2,3-butanedithiol, 2-mercaptopyridine N-oxide [BisBDT/PYR]",MIC,Haemophilus influenzae,< 0.06 µg/mL
CO/N=C(\C(=O)N[C@@H]1C(=O)N2C(C(=O)O)=C(CSc3nc(=O)c(=O)[nH]n3C)CS[C@H]12)c1csc(N)n1 [Ceftriaxone],MIC,"Neisseria gonorrhoeae; ATCC49226, N. gonorrhoeae MMX 683 (ATCC 49226), QC",0.015 µg/mL
same,MIC,"Neisseria gonorrhoeae; N. gonorrhoeae MMX 6757, CTX NS",1 µg/mL
same,MIC,"Neisseria gonorrhoeae; N. gonorrhoeae MMX 6791, CIP^R",0.06 µg/mL
same,MIC,"Neisseria gonorrhoeae; N. gonorrhoeae MMX 6792, CIP^R",0.06 µg/mL
same,MIC,"Neisseria gonorrhoeae; N. gonorrhoeae MMX 6793, CIP^R",0.03 µg/mL
